# Data reported in patent publication US4007165A (priority 1974, dated 1977).
# How the values were obtained:
# [1] = for temperature at which it begins to evolve nitrogen: onset; for gas/nitrogen evolution or decomposition: room temperature or on melting
# [2] = Curing of unsaturated polyester-styrene resin
# Procedure: An unsaturated polyester resin was made by reacting maleic anhydride (1.0 mole), phthalic anhydride (1.0 mole), and propylene glycol (2.2 moles) until an acid number of 45-50 was obtained. To this was added hydroquinone at a 0.013% concentration. Seven parts of this unsaturated polyester was diluted with 3 parts of monomeric styrene to obtain a homogeneous blend having a viscosity of 13.08 poise and a specific gravity of 1.14.
# To 20 grams of this blend was added 0.128 gram of alpha-(tert.-butylazo)isobutyronitrile and the resultant composition placed in a constant temperature bath at 212° F. (100° C.). […] At 180° F. (82.2° C.), a peak exotherm of 381° F. (193.9° C.) was obtained in 13.3 minutes. The resultant cured materials were very hard.
# The procedure of Example III was used at 212° F. (100° C.) and 240° F. (115.6° C.) where peak exotherms of 414° F. (212.2° C.) and 440° F. (226.7° C.) were obtained after 10.0 and 5.3 minutes respectively using 0.2 gram of the 1-tert.-butylazo-1-cyanocyclohexane. The resultant cured resins were very hard.
# The curing procedure and resin are described in Example III.
# [3] = 180° F. (82.2° C.), loading not given
# [4] = 212° F. (100° C.), loading not given
# [5] = 180° F. (82.2° C.), 1.0 weight per cent
# [6] = 265° F. (129.4° C.), 1.0 weight per cent
compound,measurement,setting,value
"CC(C)(C)N=NC(C)(C#N)C(C)(C)C (stereo not drawn) [Example IX, 2-tert.-butylazo-2-cyano-3,3-dimethylbutane]",temperature at which it begins to evolve nitrogen,[1],95 °C
same,hardness of cured resin,[2],very hard
same,peak exotherm,[2]; [3],388 ° F.
same,time to peak exotherm,[2]; [3],10.4 min
same,peak exotherm,[2]; [4],430 ° F.
same,time to peak exotherm,[2]; [4],4.9 min
"CCCNC(C)(CC(C)C)N=NC(C)(C)C (stereo not drawn) [Example LX, 2-t-Butylazo-2-(propylamino)-4-methylpentane]",gas/nitrogen evolution or decomposition,[1],slowly evolves gas at room temperature
"CC(C)CC(C#N)(CC(C)C)N=NC(C)(C)C [Example VII, 4-tert.-butylazo-4-cyano-2,6-dimethylheptane]",temperature at which it begins to evolve nitrogen,[1],70 °C
same,hardness of cured resin,[2],very hard
same,peak exotherm,[2]; [5],371 ° F.
same,time to peak exotherm,[2]; [5],2.8 min
"CC1CC(C)(C)CC(C#N)(N=NC(C)(C)C)C1 (stereo not drawn) [Example VIII, 1-tert.-butylazo-1-cyano-3,3,5-trimethylcyclohexane]",temperature at which it begins to evolve nitrogen,[1],100 °C
same,hardness of cured resin,[2],very hard
same,peak exotherm,[2]; [5],384 ° F.
same,time to peak exotherm,[2]; [5],9.4 min
"CC(C)(C#N)N=NC(C)(C)c1ccccc1 [Example XI, Alpha-(tert.-cumylazo)isobutyronitrile]",temperature at which it begins to evolve nitrogen,[1],55 °C
same,hardness of cured resin,[2],very hard
same,peak exotherm,[2]; [5],378 ° F.
same,time to peak exotherm,[2]; [5],1.3 min
"CC(C)OC(=O)N=NC(C)(C)c1ccccc1 [Example XVIII B, Isopropyl tert.-cumylazocarboxylate]",temperature at which it evolves nitrogen,[1],80 °C
"CC(C)CC(C)(N=NC(C)(C)C)SC#N (stereo not drawn) [LI, 2-t-Butylazo-2-thiocyanato-4-methylpentane]",Barcol Hardness,[2]; bath 115° C.,45
same,Minutes to Peak Exotherm,[2]; bath 115° C.,3.4 min
same,peak exotherm,[2]; bath 115° C.,438 ° F
"CC(C)CC(C)(N=NC(C)(C)C)OC#N (stereo not drawn) [LIII, 2-t-Butylazo-2-cyanato-4-methylpentane]",Barcol Hardness,[2]; bath 115° C.,45
same,Minutes to Peak Exotherm,[2]; bath 115° C.,3.8 min
same,peak exotherm,[2]; bath 115° C.,412 ° F
"CC(C)CC(C)(N=NC(C)(C)C)OC(C)(C)C (stereo not drawn) [LIV, 2-t-Butylazo-2-t-butoxy-4-methylpentane]",Barcol Hardness,[2]; bath 115° C.,20
same,Minutes to Peak Exotherm,[2]; bath 115° C.,2.8 min
same,peak exotherm,[2]; bath 115° C.,358 ° F
"CC(C)CC(C)(N=NC(C)(C)C)OOC(C)(CC(C)C)N=NC(C)(C)C (stereo not drawn) [LVIII, Di[1-(t-butylazo)-1,3-dimethylbutyl] Peroxide]",gas/nitrogen evolution or decomposition,[1],began to gas rapidly upon reaching room temperature
"CC(C)CC(C)(N=NC(C)(C)C)OOC(C)(C)CCC(C)(C)OOC(C)(CC(C)C)N=NC(C)(C)C (stereo not drawn) [LXV, 2,2,5,8,8,11,11,14,17,17-decamethyl-5,14-diisobutyl-Δ^3,15-3,4,15,16-tetraaza-6,7,12,13-tetraoxaoctadecadiene]",temperature at which it evolves nitrogen,[1],30 °C
"CC(C)CC(C)(N=NC(C)(C)C)NNc1ccccc1 (stereo not drawn) [LXVIII, 2-t-Butylazo-2-phenylhydrazo-4-methylpentane]",gas/nitrogen evolution or decomposition,[1],decomposes rapidly at room temperature
"CNC(=O)N=NC(C)(C)C [XIV, tert.-butylazo-N-methylformamide]",hardness of cured resin,[2],very hard
same,peak exotherm,[2]; [6],428 ° F.
same,time to peak exotherm,[2]; [6],17.1 min
"CC(C)CC(C)(N=NC(C)(C)C)N=[N+]=[N-] (stereo not drawn) [XLII, 2-t-butylazo-2-azido-4-methylpentane]",Barcol Hardness,[2]; bath 100° C.,40
same,Minutes to Peak Exotherm,[2]; bath 100° C.,5.3 min
same,peak exotherm,[2]; bath 100° C.,418 ° F
"C=C(C)N=NC(C)(C)C [XXII, 2(-tert.-butylazo)propene]",gas/nitrogen evolution or decomposition,[1],evolves nitrogen at room temperature
"COC(C)(N=NC(C)(C)C)c1ccccc1 (stereo not drawn) [XXXIX, 1-t-butylazo-1-methoxy-1-phenylethane]",Barcol Hardness,[2]; bath 82° C.,40
same,Minutes to Peak Exotherm,[2]; bath 82° C.,6.6 min
same,peak exotherm,[2]; bath 82° C.,371 ° F
"COC(C)(CC(C)C)N=NC(C)(C)C (stereo not drawn) [XXXVI, 2-t-butylazo-2-methoxy-4-methylpentane]",Barcol Hardness,[2]; bath 115° C.,40
same,Minutes to Peak Exotherm,[2]; bath 115° C.,7.2 min
same,peak exotherm,[2]; bath 115° C.,400 ° F
